Results published in ChEMBL document CHEMBL1201862, “PubChem BioAssay data set” (2004).
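Protocol summary: plate cells (96-well), add compound at 5 concentrations, incubate 48 h, interpolate endpoints linearly. At the GI50, growth is halved.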 The source made the active and inactive calls. Rule as the data show it: active = GI50 up to about 1.1 µM and inactive = higher.

Assays:
Assay in all cases: NCI tumour cell line growth inhibition, 48 h
[1] = system: 786-0
[2] = system: A498
[3] = system: A549
[4] = system: ACHN
[5] = system: CAKI-1
[6] = system: COLO 205
[7] = system: DLD-1
[8] = system: DMS-114
[9] = system: DMS-273
[10] = system: EKVX
[11] = system: HCT-116
[12] = system: HOP-18
[13] = system: HOP-62
[14] = system: HOP-92
[15] = system: HT-29
[16] = system: IGROV-1
[17] = system: KM-20L2
[18] = system: KM12
[19] = system: LOX IMVI
[20] = system: LXFL 529
[21] = system: M14
[22] = system: M19-MEL
[23] = system: MOLT-4
[24] = system: Malme-3M
[25] = system: NCI-H226
[26] = system: NCI-H23
[27] = system: NCI-H460
[28] = system: NCI-H522
[29] = system: OVCAR-3
[30] = system: OVCAR-4
[31] = system: OVCAR-5
[32] = system: OVCAR-8
[33] = system: RPMI-8226
[34] = system: RXF 393
[35] = system: SF-268
[36] = system: SF-295
[37] = system: SF-539
[38] = system: SK-MEL-28
[39] = system: SK-MEL-2
[40] = system: SK-MEL-5
[41] = system: SK-OV-3
[42] = system: SN12C
[43] = system: SNB-19
[44] = system: SNB-75
[45] = system: SNB-78
[46] = system: SR
[47] = system: SW-620
[48] = system: TK-10
[49] = system: U-251
[50] = system: UACC-257
[51] = system: UACC-62
[52] = system: UO-31
[53] = system: XF498
[54] = system: BT-549
[55] = system: CCRF-CEM
[56] = system: DU-145
[57] = system: HCC 2998
[58] = system: HCT-15
[59] = system: HL-60
[60] = system: Hs-578T
[61] = system: K562
[62] = system: MCF7
[63] = system: MDA-MB-231
[64] = system: MDA-MB-435
[65] = system: MDA-N
[66] = system: NCI/ADR-RES
[67] = system: PC-3
[68] = system: T47D

C=C1CC2CC(O)CC(C1)C2 (stereo unspecified)
GI50 [1]: > 100000 nM (inactive)
GI50 [2]: > 100000 nM (inactive)
GI50 [3]: > 100000 nM (inactive)
GI50 [4]: > 100000 nM (inactive)
GI50 [5]: > 100000 nM (inactive)
GI50 [6]: > 100000 nM (inactive)
GI50 [7]: > 100000 nM (inactive)
GI50 [8]: > 100000 nM (inactive)
GI50 [9]: > 100000 nM (inactive)
GI50 [10]: > 100000 nM (inactive)
GI50 [11]: > 100000 nM (inactive)
GI50 [12]: > 100000 nM (inactive)
GI50 [13]: > 100000 nM (inactive)
GI50 [14]: > 100000 nM (inactive)
GI50 [15]: > 100000 nM (inactive)
GI50 [16]: > 100000 nM (inactive)
GI50 [17]: > 100000 nM (inactive)
GI50 [18]: > 100000 nM (inactive)
GI50 [19]: > 100000 nM (inactive)
GI50 [20]: > 100000 nM (inactive)
GI50 [21]: > 100000 nM (inactive)
GI50 [22]: > 100000 nM (inactive)
GI50 [23]: 78200 nM (inactive)
GI50 [24]: > 100000 nM (inactive)
GI50 [25]: > 100000 nM (inactive)
GI50 [26]: > 100000 nM (inactive)
GI50 [27]: > 100000 nM (inactive)
GI50 [28]: > 100000 nM (inactive)
GI50 [29]: > 100000 nM (inactive)
GI50 [30]: > 100000 nM (inactive)
GI50 [31]: > 100000 nM (inactive)
GI50 [32]: > 100000 nM (inactive)
GI50 [33]: 32400 nM (inactive)
GI50 [34]: > 100000 nM (inactive)
GI50 [35]: > 100000 nM (inactive)
GI50 [36]: > 100000 nM (inactive)
GI50 [37]: > 100000 nM (inactive)
GI50 [38]: > 100000 nM (inactive)
GI50 [39]: > 100000 nM (inactive)
GI50 [40]: > 100000 nM (inactive)
GI50 [41]: > 100000 nM (inactive)
GI50 [42]: > 100000 nM (inactive)
GI50 [43]: > 100000 nM (inactive)
GI50 [44]: > 100000 nM (inactive)
GI50 [45]: > 100000 nM (inactive)
GI50 [46]: 93500 nM (inactive)
GI50 [47]: > 100000 nM (inactive)
GI50 [48]: > 100000 nM (inactive)
GI50 [49]: > 100000 nM (inactive)
GI50 [50]: > 100000 nM (inactive)
GI50 [51]: > 100000 nM (inactive)
GI50 [52]: > 100000 nM (inactive)
GI50 [53]: > 100000 nM (inactive)

Cc1cnc(NCCCN(C)C)c2c1[nH]c1ccc3cc(O)ccc3c12
GI50 [1]: 200 nM (active)
GI50 [2]: 1560 nM (inactive)
GI50 [3]: 365 nM (active)
GI50 [4]: 552 nM (active)
GI50 [54]: 1520 nM (inactive)
GI50 [5]: 566 nM (active)
GI50 [55]: 1010 nM (active)
GI50 [6]: 244 nM (active)
GI50 [7]: 490 nM (active)
GI50 [8]: 96.2 nM (active)
GI50 [9]: 462 nM (active)
GI50 [56]: 1290 nM (inactive)
GI50 [10]: 1490 nM (inactive)
GI50 [57]: 326 nM (active)
GI50 [11]: 236 nM (active)
GI50 [58]: 4630 nM
GI50 [59]: 3320 nM (inactive)
GI50 [12]: 1430 nM (inactive)
GI50 [13]: 267 nM (active)
GI50 [14]: 187 nM (active)
GI50 [15]: 362 nM (active)
GI50 [60]: 325 nM (active)
GI50 [16]: 1190 nM (inactive)
GI50 [61]: 1280 nM (inactive)
GI50 [17]: 266 nM (active)
GI50 [18]: 1390 nM (inactive)
GI50 [19]: 247 nM (active)
GI50 [20]: 142 nM (active)
GI50 [21]: 1280 nM (inactive)
GI50 [22]: 383 nM (active)
GI50 [62]: 308 nM (active)
GI50 [63]: 879 nM (active)
GI50 [64]: 1100 nM (active)
GI50 [65]: 1040 nM (active)
GI50 [23]: 18.1 nM (active)
GI50 [24]: 879 nM (active)
GI50 [25]: 435 nM (active)
GI50 [26]: 499 nM (active)
GI50 [27]: 43.9 nM (active)
GI50 [28]: 129 nM (active)
GI50 [66]: 3440 nM (inactive)
GI50 [29]: 505 nM (active)
GI50 [30]: 282 nM (active)
GI50 [31]: 925 nM (active)
GI50 [32]: 200 nM (active)
GI50 [67]: 585 nM (active)
GI50 [33]: 600 nM (active)
GI50 [34]: 667 nM (active)
GI50 [35]: 288 nM (active)
GI50 [36]: 700 nM (active)
GI50 [37]: 508 nM (active)
GI50 [38]: 1390 nM (inactive)
GI50 [39]: 1030 nM (active)
GI50 [40]: 815 nM (active)
GI50 [41]: 569 nM (active)
GI50 [42]: 244 nM (active)
GI50 [43]: 480 nM (active)
GI50 [44]: 555 nM (active)
GI50 [45]: 929 nM (active)
GI50 [46]: 61.7 nM (active)
GI50 [47]: 166 nM (active)
GI50 [68]: 485 nM (active)
GI50 [48]: 6040 nM (inactive)
GI50 [49]: 164 nM (active)
GI50 [50]: 4600 nM (inactive)
GI50 [51]: 678 nM (active)
GI50 [52]: 2030 nM (inactive)
GI50 [53]: 222 nM (active)
